# Like-named read-outs stand apart in the source and are kept apart here.
# Columns and labels:
# [1] = tested on: Ba/F3-NRAS^G12D cell line; test: Antiproliferative test (CellTiter Glo, 48 hours) in NRAS^G12D-transfected Ba/F3 cells; format: cell-based, murine; conditions: for IC50: Mus musculus
# Protocol: The Ba/F3 cell line was obtained from ATCC in 2009, and cultured according to a method described in Zhang X Ren R. Bcr-abl efficiently induces a myeloproliferative disease and production of excess interleukin-3 and granulocyte-macrophage colony-stimulating factor in mice: A novel model for chronic myelogenous leukemia. Blood., 1998, 92: 3829-40. Growth factor-dependent BA/F3 cells were cultured in RPMI 1640 including 10% FBS and supplemented with 15% WEHI-3 conditioned medium or recombinant IL-3 (Roche) as a source of IL-3 at a final concentration of 1 ng/ml. […] Cancer Res., 2007, 67: 7139-46 and Fredericks J, Ren R. The role of RAS effectors in BCRIABL induced chronic myelogenous leukemia. Front Med China., 2013, 7: 452-61. Upon receipt of the original stock, cells were expanded and frozen at a low passage rate (<3). Frozen cells were thawed and used in this study, with cell passages limited to 15 for all experimental procedures. All cells were tested regularly to ensure freedom and maintenance in a normal state of mycoplasma.
# NRAS^G12D-transfected Ba/F3 (Ba/F3-N) or KRAS^G12D-transfected Ba/F3 ([…]) cells were seeded into 96-well cell culture cluster plate in 100 μL of medium at a density of 5,000 cells per well. BI853520 was diluted 3-fold with RPMI 1640 at 9 points, and added according to the volume of each well, starting at 10 μmol/L to reach a 3-fold concentration gradient (final solvent concentration <1/1000). PD0325901 was used as a positive control. After 48 hours of incubation, cell viability was measured using CellTiter Glo (Promega). Luminescence was detected using an Envision plate reader (PerkinElmer). The calculation method of Z factor was as described in Zhang J H, Chung T D Y, Oldenburg K R. A simple statistical parameter for use in evaluation and validation of high throughput screening assays. J Biomol Screen., 1999, 4: 67-73, and the following analysis only used data with Z factor >0.6. […]
# [2] = tested on: GAK (NRAS^Q61L) melanoma cell line; test: GAK CDX model (melanoma with an NRAS mutation): tumor growth; format: in vivo, mouse; conditions: for Tumor growth compared to the control group (in words): GAK model, daily treatment; for Mean TGI: daily, based on relative tumor volume on day 14
# Protocol: 1.1. Test compound: BI853520, which was synthesized according to the method in the patent WO2010058032. BI853520 was formulated with 0.5% hydroxyethyl cellulose (Ashland).
# 1.2. Cells: The melanoma cell line GAK was purchased from JCRB Cell Bank, and HMVII cells were purchased from Sigma. GAK originated in the inguinal lymph nodes of patients with vaginal melanoma, whereas HMVII originated in primary vaginal melanoma. GAK and HMVII cells were cultured in tissue culture flasks containing 5% CO2 at 37° C. The media were Ham's F12 containing 10% heat-inactivated FBS and Ham's F10 containing 15% FBS, respectively. All media were supplemented with 100 U/mL penicillin, […] streptomycin, and 2 mM GlutaMAX. All cell culture reagents were purchased from GIBCO.
# Both HMVII and GAK cell lines carried an NRAS mutation at the Q61 position. HMVII (NRAS^Q61K) and GAK (NRAS^Q61L)
# 1.3. Mice: 4-week-old female balb/c nude mice (purchased from Beijing Vital River Laboratory Animal Technology Co., Ltd.). After arriving in the animal room, the mice were allowed to acclimate to the new environment for at least 2 weeks before being used for assay. The animals were housed under standard conditions (temperature: 21.5±1.5° C., humidity: 55±10%). A Standard diet and autoclaved tap water were provided ad libitum. All animal care and experimental procedures were performed in accordance with the animal care ethics guidelines approved by the Medical Ethics Committee of Beijing Cancer Hospital and Research Institute.
# To establish subcutaneous tumors, HMVII and GAK cells were harvested by trypsinization, centrifuged, washed and resuspended in ice-cold PBS+5% FCS. Then 100 l of the cell suspension containing 5×10^6 cells was injected subcutaneously into the right flank of nude mice (1 site per mouse). When tumors were well established and reached a median volume of approximately 400-600 mm^3, mice were randomly assigned to the treatment group and the control group.
# 1.5. Administration: BI 853520 was formulated in 0.5% hydroxyethyl cellulose, which was intragastrically administered through gavage needle every day, and the dosage was 10 mL/Kg body weight.
# Tumor diameters were measured twice a week with calipers. The volume [mm^3] of each tumor was calculated according to the equation “tumor volume=length×diameter^2×π/6”. Animals were sacrificed at the end of the study (approximately two weeks after the start of treatment). During the study, animals with necrotic tumors or tumors exceeding 2000 mm^3 in size were sacrificed for ethical reasons.
# Tumor volumes were statistically assessed at the end of the assay. For tumor volume, relative values were used.
# The number of observations, and the median, minimum and maximum tumor volumes were calculated. For a quick overview of possible treatment effects, the following metrics were calculated: • Relative tumor volume: (T/C)
# [formula] • TGI from day 1 to day d: TGI=100×[(Cd−C1)−(Td−T1)]/(Cd−C1) • wherein, C1, T1=mean relative tumor volume in control and treatment groups at the start of the assay (day 1); • Cd, Td=mean relative tumor volume in control and treatment groups at the end of the assay (day d).
# Statistical evaluation was performed using the Student's t-test function in Microsoft Excel, using two-tailed distribution and two-sample equal variance type.
# The significance level was fixed at α=5%. […]
structure (smiles),measurement,setting,value
COc1cc(C(=O)NC2CCN(C)CC2)c(F)cc1Nc1ncc(C(F)(F)F)c(Oc2cccc3c2C(=O)N(C)C3)n1 [BI853520],Increase of IC50 after addition of IL-3,[1]; + IL-3 versus − IL-3,more than 4 fold
same,IC50,"[1]; BaF3, after addition of IL-3, 48 hours, read-out: IC50 (antiproliferative effect), + IL-3",15 µM
same,IC50,"[1]; BaF3, without IL-3, 48 hours, read-out: IC50 (antiproliferative effect), − IL-3",3.4 µM
same,Tumor growth compared to the control group (in words),[2],inhibit tumor growth
same,Tumor growth compared to the control group (in words),[2]; listed as BI 853520,delayed tumor growth
same,Mean tumor volume,"[2]; GAK, 50 mg/kg (1st week), 25 mg/kg (2nd week), daily gavage, day 14",548 ± 144 mm^3
same,Mean TGI,"[2]; GAK, 50 mg/kg (1st week), 25 mg/kg (2nd week)",80%
same,Mean TGI,"[2]; GAK, 50 mg/kg (1st week), 25 mg/kg (2nd week), listed as BI 853520",80%

# Reference: patent US12257251B2, “Use of FAK inhibitor in preparation of drug for treating tumors having NRAS mutation” (INXMED (NANJING) CO., LTD., priority 2019, dated 2025)
